{"source": "patent US5985273A", "about": "“Biological control of insects” (priority 1994, dated 1999)", "key": {"[1]": {"test_system": "Bovicola ovis (Hartley strain)", "test": "Survival of sheep lice on inhibitor treated wool", "assay_type": "in vivo", "conditions": "of 10 lice"}, "[2]": {"test_system": "Heliothis punctigens larvae", "test": "Growth and survival of cotton budworm larvae fed an artificial diet", "assay_type": "in vivo", "conditions": "10 days; for % Alive: control 70.0; for Average Laval Weight: control 165.4", "method": "1. The Haricot beans were cooked in a microwave for 40 minutes. 2. Agar was added to the hot water and stirred on a hot plate until almost boiling. 3. The haricot beans, agar mix, yeast and wheat germ was blended in an electric mixer for 3 minutes. 4. When the temperature has dropped to 60°C., the acids were added and mixed with the media. […] Inhibitor solutions or an equal volume of water were placed into sterilized glass tubes at designated concentrations. The artificial media was added to each tube (1.5 ml) using a sterile 10 ml syringe. First instar Heliothis punctigens larvae (1 larvae per tube) were added to the glass tubes and the tubes were capped. The tubes were incubated for 10 days at 25° C. The larvae were killed by placing the glass tubes at -70° C. for 24 hours, and then individually weighed. Percentage inhibition was calculated by comparison to control larvae."}, "Lucilia cuprina larvae": {"test_system": "Lucilia cuprina larvae", "test": "Growth and survival of first instar sheep blowfly larvae on culture medium with inhibitor", "assay_type": "in vivo", "conditions": "for % Growth Incubation / Average Larval Weight: Table 2.3; for Average Larval Weight: control 9.08"}, "Teleogryllus commodus": {"test_system": "Teleogryllus commodus", "test": "Mortality of black field cricket nymphs on treated cabbage leaf disks", "assay_type": "in vivo", "conditions": "30 mM; after 7 days", "method": "(i) Stock solutions of inhibitors and control solutions were prepared as aqueous solutions or suspensions as outlined in Table 6.1.\n(ii) Mortality was assessed by commencing the study with 1st instar nymphs.\n(iii) Cabbage leaf disks (5×8 mm diameter disks/treatment) were smeared with 100 μl of inhibitor or control stock solutions and allowed to dry. Disks were placed singly in 40 mm petri dishes, together with a moist cotton wool pas as water supply and a piece of fluted plastic for shelter.\n(iv) Ten nymphs were placed on each disc and the dishes incubated at 25° C.\n(v) Mortality was assessed daily and any dead individuals removed."}, "L. cuprina eggs": {"test_system": "L. cuprina eggs", "test": "Egg hatch of L. cuprina on liver in vitro", "assay_type": "in vivo, Lucilia cuprina", "conditions": "24 hours at 35° C., control 71", "method": "L. cuprina eggs were placed on pieces of liver (0.9 g) which were then placed in individual wells of a 24-well tissue culture plate. Phosphate buffered saline (PBS, 0.1 ml) containing inhibitors at set concentrations were added to each well with 30 freshly laid and sterilised eggs of L. cuprina. The culture plate was then maintained in a sterile environment at 35° C. for 24 hours, after which time the percentage hatch was assessed."}, "O. surinamensis larvae": {"test_system": "O. surinamensis larvae", "test": "Weight reduction of Oryzaephylus surinamensis larvae in treated flour", "assay_type": "in vivo", "method": "Insects were cultured in cleaned, ground and sieved wholemeal flour made from organic wheat. Inhibitors from bottles of pre-weighed material were dry-mixed with the flour and residual inhibitor rinsed from bottles with a small volume of water. Rinse water was added to the flour and the mixture re-ground. The impregnated flour was transferred to a 20 mL vial and mixed thoroughly by shaking and inverting.\nAdults of T. castaneum were allowed to oviposit on flour, eggs were sifted from the flour and transferred one by one with a single hair to microwell tubes containing a small amount of flour. Each level of treatment was performed in triplicated using 32 wells/replicate. Assays were performed in triplicated. Cultures were incubated at 30° C. and 55% R H.\nThe bioassay for this insect was outlined for T. castaneum, except incubations were conducted at 32.5° C. and 70% R H. After 8 days the insects were sieved from the flour and weighed."}, "Tribolium castaneum": {"test_system": "Tribolium castaneum", "test": "Growth and survival of Tribolium castaneum in treated flour", "assay_type": "in vivo", "conditions": "Day 6; all dose levels", "method": "Insects were cultured in cleaned, ground and sieved wholemeal flour made from organic wheat. Inhibitors from bottles of pre-weighed material were dry-mixed with the flour and residual inhibitor rinsed from bottles with a small volume of water. Rinse water was added to the flour and the mixture re-ground. The impregnated flour was transferred to a 20 mL vial and mixed thoroughly by shaking and inverting. Adults of T. castaneum were allowed to oviposit on flour, eggs were sifted from the flour and transferred one by one with a single hair to microwell tubes containing a small amount of flour. Each level of treatment was performed in triplicated using 32 wells/replicate. Assays were performed in triplicated. Cultures were incubated at 30° C. and 55% R H. After 6 days each replicate of 32 wells was combined, the larvae counted and the numbers compared with numbers in the control (no inhibitor) treatment. Larvae were classified as \"small\" if appreciably smaller than reference larvae, or abnormal if unusual behaviour or formation were observed (eg. twisting or twisted larvae). Test inhibitors and dose rates were the same as those used in Example 4."}, "Ctenocephalides felis": {"test_system": "Ctenocephalides felis", "test": "Development of cat flea eggs in dried blood diets", "assay_type": "in vivo", "conditions": "Day 16", "method": "Blood was collected from the jugular vein of a five year old merino sheep that had not been treated with an ectoparasitic agent for 18 months. The blood was collected into a 100 ml plastic bottle containing 0.8 ml of heparin and was maintained at 4° C. Inhibitors were pre-weighed into sterile 5 ml plastic vials and 4.5 ml of blood added. The samples were mixed, placed at -70° C. for 24 hours, then freeze-dried. The freeze-dried samples were sieved through a stainless steel 63 micron sieve, and placed into sterile 5 ml plastic vials (0.15 g/per tube). Four flea eggs were placed into each vial, and a sheet of tissue paper fastened by an elastic band was fitted to the top of each vial. The vials were incubated at 25° C. and 70-80% R H for 6 days. Vermiculite was then added to each vial to provide a supporting medium for the fleas to pupate and the tubes incubated at 25° C. and 70-80% R H, for a further 10 days. Ten control vials and three vials of each treatment were tested.\nAt the conclusion of the incubation period the vials were placed at -20° C. for 24 hours to kill the fleas. The number of eggs hatched and the life-cycle state was recorded."}}}
{"smiles": "O=C(O)CN(CCN(CC(=O)O)CC(=O)O)CC(=O)O", "note": "[EDTA, ethylene diamine tetraacetic acid]", "values": [{"measurement": "Number of Living Lice", "setting": "[1]; Adult, 10 mM, 24 Hours at 35° C.", "value": 2}, {"measurement": "Number of Living Lice", "setting": "[1]; Adult, 20 mM, 24 Hours at 35° C.", "value": 1}, {"measurement": "Number of Living Lice", "setting": "[1]; Adult, third EDTA line, concentration not given, 24 Hours", "value": 0}, {"measurement": "Number of Living Lice", "setting": "[1]; instar 1, 10 mM, 24 Hours at 35° C.", "value": 0}, {"measurement": "Number of Living Lice", "setting": "[1]; instar 1, 20 mM, 24 Hours at 35° C.", "value": 0}, {"measurement": "Number of Living Lice", "setting": "[1]; instar 1, third EDTA line, concentration not given, 24 Hours", "value": 0}, {"measurement": "Number of Living Lice", "setting": "[1]; instar 2, 10 mM, 24 Hours at 35° C.", "value": 2}, {"measurement": "Number of Living Lice", "setting": "[1]; instar 2, 20 mM, 24 Hours at 35° C.", "value": 1}, {"measurement": "Number of Living Lice", "setting": "[1]; instar 2, third EDTA line, concentration not given, 24 Hours", "value": 0}, {"measurement": "Number of Living Lice", "setting": "[1]; instar 3, 10 mM, 24 Hours at 35° C.", "value": 1}, {"measurement": "Number of Living Lice", "setting": "[1]; instar 3, 20 mM, 24 Hours at 35° C.", "value": 0}, {"measurement": "Number of Living Lice", "setting": "[1]; instar 3, third EDTA line, concentration not given, 24 Hours", "value": 0}, {"measurement": "% Alive", "setting": "[2]; 2.5 mM", "value": 50.0, "unit": "%"}, {"measurement": "Average Laval Weight", "setting": "[2]; 2.5 mM", "value": 123.6, "unit": "mg"}, {"measurement": "% Alive", "setting": "[2]; 5.0 mM", "value": 33.3, "unit": "%"}, {"measurement": "Average Laval Weight", "setting": "[2]; 5.0 mM", "value": 9.25, "unit": "mg"}, {"measurement": "% Alive", "setting": "[2]; 10.0 mM", "value": 67.0, "unit": "%"}, {"measurement": "Average Laval Weight", "setting": "[2]; 10.0 mM", "value": 4.75, "unit": "mg"}, {"measurement": "inhibition at 2500 µM", "setting": "[2]; Heliothis, 240 h, 2.5 mM, read-out: % Growth Inhibition", "value": 25.3, "unit": "%"}, {"measurement": "inhibition at 5000 µM", "setting": "[2]; Heliothis, 240 h, 5.0 mM, read-out: % Growth Inhibition", "value": 94.4, "unit": "%"}, {"measurement": "inhibition at 10000 µM", "setting": "[2]; Heliothis, 240 h, 10.0 mM", "value": 97.1, "unit": "%"}, {"measurement": "Effect on larval growth, summary in words", "setting": "Lucilia cuprina larvae; Example 1, Table 1.2", "value": "effective growth inhibitors"}, {"measurement": "inhibition at 5000 µM", "setting": "Lucilia cuprina larvae; Lucilia cuprina, first instar larvae, 5 mM", "value": 84, "unit": "%"}, {"measurement": "% Growth Incubation", "setting": "Lucilia cuprina larvae; 0.25 mM", "value": -6.6, "unit": "%"}, {"measurement": "Average Larval Weight", "setting": "Lucilia cuprina larvae; 0.25 mM", "value": "9.68 10^-4 g"}, {"measurement": "% Growth Incubation", "setting": "Lucilia cuprina larvae; 0.50 mM", "value": 39.8, "unit": "%"}, {"measurement": "Average Larval Weight", "setting": "Lucilia cuprina larvae; 0.50 mM", "value": "5.47 10^-4 g"}, {"measurement": "% Growth Incubation", "setting": "Lucilia cuprina larvae; 1.0 mM", "value": 69.7, "unit": "%"}, {"measurement": "Average Larval Weight", "setting": "Lucilia cuprina larvae; 1.0 mM", "value": "2.75 10^-4 g"}, {"measurement": "% Growth Incubation", "setting": "Lucilia cuprina larvae; 1.5 mM", "value": 51.2, "unit": "%"}, {"measurement": "Average Larval Weight", "setting": "Lucilia cuprina larvae; 1.5 mM", "value": "4.43 10^-4 g"}, {"measurement": "% Growth Incubation", "setting": "Lucilia cuprina larvae; 2.0 mM", "value": 72.4, "unit": "%"}, {"measurement": "Average Larval Weight", "setting": "Lucilia cuprina larvae; 2.0 mM", "value": "2.51 10^-4 g"}, {"measurement": "Larval survival", "setting": "Lucilia cuprina larvae; first instar larvae, 10 mM", "value": "All killed"}, {"measurement": "Mortality", "setting": "Teleogryllus commodus", "value": 78, "unit": "%"}, {"measurement": "Mortality (class)", "setting": "Teleogryllus commodus", "value": "High (high 41-100%)"}, {"measurement": "% Hatch", "setting": "L. cuprina eggs; 2 mM", "value": 10, "unit": "%"}, {"measurement": "% Hatch", "setting": "L. cuprina eggs; 5 mM", "value": 0, "unit": "%"}, {"measurement": "% Hatch", "setting": "L. cuprina eggs; 10 mM", "value": 10, "unit": "%"}, {"measurement": "inhibition at 10000 µM", "setting": "O. surinamensis larvae; 192 h, 10 mM, 8 days, relative to untreated larvae, read-out: Percentage Growth Inhibition", "value": 32, "unit": "%"}, {"measurement": "inhibition at 20000 µM", "setting": "O. surinamensis larvae; 192 h, 20 mM, 8 days, relative to untreated larvae, read-out: Percentage Growth Inhibition", "value": 4, "unit": "%"}, {"measurement": "inhibition at 30000 µM", "setting": "O. surinamensis larvae; 192 h, 30 mM, 8 days, relative to untreated larvae, read-out: Percentage Growth Inhibition", "value": 28, "unit": "%"}, {"measurement": "Growth inhibition, summary in words", "setting": "O. surinamensis larvae; text summary of Table 9.1", "value": "moderately effective"}, {"measurement": "Larval size classification", "setting": "Tribolium castaneum", "value": "small"}, {"measurement": "Percentage of Fleas Progressing Through to Pupation", "setting": "Ctenocephalides felis; 1.5625 mg in 4.5 ml of blood, control 97.5", "value": 0, "unit": "%"}, {"measurement": "Percentage of Fleas Progressing Through to Pupation", "setting": "Ctenocephalides felis; 3.125 mg in 4.5 ml of blood", "value": 0, "unit": "%"}, {"measurement": "Percentage of Fleas Progressing Through to Pupation", "setting": "Ctenocephalides felis; 6.25 mg in 4.5 ml of blood", "value": 0, "unit": "%"}]}
